For nine compounds, IC50 results are on record in patent US20240109917A1 (ACTELION PHARMACEUTICALS LTD, priority 2020, published 2024).

For orientation: IC50 means the concentration at which inhibition is half-maximal.

The target of assay [1] is Tb-labeled inactive PDGFRβ (Homo sapiens (Human), UniProt P09619). The assay can be described thus: PDGFRβ LanthaScreen Assay. Format: binding. To be noted: read-out: PDGFR Lantha IC50. Background: In TR-FRET formats the signal depends on donor and acceptor labels being close together.
Sequence of Tb-labeled inactive PDGFRβ (P09619 33-1106): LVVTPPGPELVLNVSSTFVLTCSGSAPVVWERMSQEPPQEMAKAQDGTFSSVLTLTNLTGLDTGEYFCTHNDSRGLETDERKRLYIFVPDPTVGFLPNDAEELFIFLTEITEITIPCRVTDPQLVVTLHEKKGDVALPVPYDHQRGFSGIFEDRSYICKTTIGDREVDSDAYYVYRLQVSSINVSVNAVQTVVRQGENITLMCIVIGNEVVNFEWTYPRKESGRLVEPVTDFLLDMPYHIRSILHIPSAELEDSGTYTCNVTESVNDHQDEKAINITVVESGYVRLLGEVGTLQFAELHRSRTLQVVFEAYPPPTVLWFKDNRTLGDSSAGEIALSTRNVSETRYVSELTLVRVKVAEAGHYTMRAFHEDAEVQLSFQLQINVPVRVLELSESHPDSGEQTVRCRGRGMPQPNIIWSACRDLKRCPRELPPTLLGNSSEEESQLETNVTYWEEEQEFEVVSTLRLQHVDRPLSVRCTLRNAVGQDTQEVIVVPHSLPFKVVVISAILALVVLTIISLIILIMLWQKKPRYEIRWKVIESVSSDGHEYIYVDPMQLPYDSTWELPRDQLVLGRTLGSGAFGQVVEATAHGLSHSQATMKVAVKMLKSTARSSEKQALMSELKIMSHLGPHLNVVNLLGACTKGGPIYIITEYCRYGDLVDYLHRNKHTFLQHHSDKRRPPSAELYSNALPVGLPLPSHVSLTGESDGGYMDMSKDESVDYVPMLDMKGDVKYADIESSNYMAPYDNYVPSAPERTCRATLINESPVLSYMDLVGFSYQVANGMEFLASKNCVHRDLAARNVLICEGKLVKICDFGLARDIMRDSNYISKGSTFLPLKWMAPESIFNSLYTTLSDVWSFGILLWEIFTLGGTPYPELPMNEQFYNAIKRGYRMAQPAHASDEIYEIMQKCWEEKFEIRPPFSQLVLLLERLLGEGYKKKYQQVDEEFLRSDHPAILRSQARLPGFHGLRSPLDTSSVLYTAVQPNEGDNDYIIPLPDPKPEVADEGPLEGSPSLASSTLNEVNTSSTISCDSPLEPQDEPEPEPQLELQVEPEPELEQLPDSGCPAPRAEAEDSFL
Another assay deals with VEGFR2, unphosphorylated (Homo sapiens (Human), UniProt P35968). The assay can be described thus: VEGFR ADP GLO Assay. Format: biochemical. Background: ADP-Glo first removes unused ATP, then detects ADP through luciferase.
Sequence of VEGFR2, unphosphorylated (P35968 20-1356): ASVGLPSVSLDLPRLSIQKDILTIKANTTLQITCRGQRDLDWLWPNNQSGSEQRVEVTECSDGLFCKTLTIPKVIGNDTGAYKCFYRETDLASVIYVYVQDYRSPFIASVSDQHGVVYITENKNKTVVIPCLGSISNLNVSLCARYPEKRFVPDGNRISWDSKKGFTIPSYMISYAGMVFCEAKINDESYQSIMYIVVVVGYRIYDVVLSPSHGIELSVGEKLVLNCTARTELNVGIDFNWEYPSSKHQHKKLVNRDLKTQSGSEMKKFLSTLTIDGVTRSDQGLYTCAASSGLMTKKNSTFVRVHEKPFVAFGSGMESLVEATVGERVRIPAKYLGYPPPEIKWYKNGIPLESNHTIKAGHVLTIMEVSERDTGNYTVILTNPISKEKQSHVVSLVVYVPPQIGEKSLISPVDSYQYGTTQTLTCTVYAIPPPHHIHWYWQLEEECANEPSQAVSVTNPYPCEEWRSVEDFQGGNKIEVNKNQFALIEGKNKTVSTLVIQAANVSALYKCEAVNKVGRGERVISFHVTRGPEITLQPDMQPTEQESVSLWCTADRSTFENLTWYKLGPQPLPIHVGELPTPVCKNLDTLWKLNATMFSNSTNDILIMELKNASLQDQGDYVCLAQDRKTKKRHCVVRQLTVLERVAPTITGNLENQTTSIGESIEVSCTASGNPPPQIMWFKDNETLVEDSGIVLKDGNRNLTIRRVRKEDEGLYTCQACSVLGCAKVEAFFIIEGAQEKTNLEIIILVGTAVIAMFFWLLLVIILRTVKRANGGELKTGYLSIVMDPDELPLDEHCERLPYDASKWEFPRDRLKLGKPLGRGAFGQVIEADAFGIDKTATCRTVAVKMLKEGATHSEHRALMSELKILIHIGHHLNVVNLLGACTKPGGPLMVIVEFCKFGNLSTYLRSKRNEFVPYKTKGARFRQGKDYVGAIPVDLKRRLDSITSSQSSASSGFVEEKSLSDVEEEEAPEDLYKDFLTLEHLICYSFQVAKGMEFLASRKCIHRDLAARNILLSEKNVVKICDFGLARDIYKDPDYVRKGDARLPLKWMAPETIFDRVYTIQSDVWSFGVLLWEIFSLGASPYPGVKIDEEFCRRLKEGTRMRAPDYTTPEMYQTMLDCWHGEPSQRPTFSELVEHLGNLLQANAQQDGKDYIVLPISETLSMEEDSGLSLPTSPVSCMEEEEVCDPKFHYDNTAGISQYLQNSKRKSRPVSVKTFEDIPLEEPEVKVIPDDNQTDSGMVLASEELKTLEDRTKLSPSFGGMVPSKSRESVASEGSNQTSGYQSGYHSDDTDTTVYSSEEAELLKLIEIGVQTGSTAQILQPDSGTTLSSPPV

In the case of `Cc1ncc(NC(=O)CN2CC(C)(C)C2)cc1NC(=O)c1cnn2cc(-c3ccc(CO)o3)sc12` [Example 292, N-(5-(2-(3,3-dimethylazetidin-1-yl)acetamido)-2-methylpyridin-3-yl)-2-(5-(hydroxymethyl)furan-2-yl)pyrazolo[5,1-b]thiazole-7-carboxamide], the IC50 was 2.2 nM in assay [1] and over 7500 nM on VEGFR2, unphosphorylated.

As to `Cc1ncc(NC(=O)CN(C)C2CCOCC2)cc1NC(=O)c1cnn2cc(-c3cnn(C4CCC4)c3)sc12` [Example 296, 2-(1-cyclobutyl-1H-pyrazol-4-yl)-N-(2-methyl-5-(2-(methyl(tetrahydro-2H-pyran-4-yl)amino)acetamido)pyridin-3-yl)pyrazolo[5,1-b]thiazole-7-carboxamide], the IC50 in assay [1] was 3.7 nM; against VEGFR2, unphosphorylated, over 7500 nM.

Turning to `Cc1ncc(NC(=O)[C@@H]2C[C@H](C)CN2C)cc1NC(=O)c1cnn2cc(-c3cccnc3O)sc12` [Example 316, N-(5-((2S,4S)-1,4-dimethylpyrrolidine-2-carboxamido)-2-methylpyridin-3-yl)-2-(2-hydroxypyridin-3-yl)pyrazolo[5,1-b]thiazole-7-carboxamide], the IC50 in assay [1] was 21.7 nM; at VEGFR2, unphosphorylated it was over 7500 nM.

Regarding `Cc1ncc(NC(=O)CN2CCCCC23COC3)cc1NC(=O)c1cnn2cc(-c3cnn(C)c3)sc12` [Example 25, N-(5-(2-(2-oxa-5-azaspiro[3.5]nonan-5-yl)acetamido)-2-methylpyridin-3-yl)-2-(1-methyl-1H-pyrazol-4-yl)pyrazolo[5,1-b]thiazole-7-carboxamide], the IC50 was 6.6 nM in assay [1] and over 7500 nM against VEGFR2, unphosphorylated.

For `Cc1ncc(NC(=O)CN2CC(C)(C)C2)cc1NC(=O)c1cnn2cc(-c3cnn(C4CCS(=O)(=O)CC4)c3)sc12` [Example 280, N-(5-(2-(3,3-dimethylazetidin-1-yl)acetamido)-2-methylpyridin-3-yl)-2-(1-(1,1-dioxidotetrahydro-2H-thiopyran-4-yl)-1H-pyrazol-4-yl)pyrazolo[5,1-b]thiazole-7-carboxamide], the IC50 was 4.3 nM in assay [1] and over 7500 nM against VEGFR2, unphosphorylated.

For `Cc1ncc(NC(=O)CN(C)C2CCOCC2)cc1NC(=O)c1cnn2cc(-c3cnn(CS(C)(=O)=O)c3)sc12` [Example 298, N-(2-methyl-5-(2-(methyl(tetrahydro-2H-pyran-4-yl)amino)acetamido)pyridin-3-yl)-2-(1-((methylsulfonyl)methyl)-1H-pyrazol-4-yl)pyrazolo[5,1-b]thiazole-7-carboxamide], the IC50 in assay [1] was 6.4 nM; on VEGFR2, unphosphorylated it was over 7500 nM.

For the compound `Cc1ncc(NC(=O)[C@@H]2C[C@@H](C)CN2C)cc1NC(=O)c1cnn2cc(-c3cnn(C)c3)sc12` [Example 304, N-(5-((2S,4R)-1,4-dimethylpyrrolidine-2-carboxamido)-2-methylpyridin-3-yl)-2-(1-methyl-1H-pyrazol-4-yl)pyrazolo[5,1-b]thiazole-7-carboxamide], the IC50 is 5.6 nM in assay [1] and over 7500 nM at VEGFR2, unphosphorylated.

Turning to `Cc1ncc(NC(=O)OC[C@@H]2CCCN2C)cc1NC(=O)c1cnn2cc(-c3cccc4c3cnn4C)sc12` [Example 257, (S)-(1-methylpyrrolidin-2-yl)methyl (6-methyl-5-(2-(1-methyl-1H-indazol-4-yl)pyrazolo[5,1-b]thiazole-7-carboxamido)pyridin-3-yl)carbamate], the IC50 was 2.6 nM in assay [1] and over 2500 nM at VEGFR2, unphosphorylated.

On to `COCCn1cc(-c2cn3ncc(C(=O)Nc4cc(NC(=O)CN5CCC[C@H]5C)cnc4C)c3s2)cn1` [Example 330, (R)-2-(1-(2-methoxyethyl)-1H-pyrazol-4-yl)-N-(2-methyl-5-(2-(2-methylpyrrolidin-1-yl)acetamido)pyridin-3-yl)pyrazolo[5,1-b]thiazole-7-carboxamide], for which the IC50 in assay [1] was 9.6 nM; against VEGFR2, unphosphorylated, over 7500 nM.
